Measured values from PubChem BioAssay AID1963438 (Molecular Pharmacology Branch, DTP, NCI, 2024).
pIC50: −log10 of the molar value. Values joined by “and” are separate entries in the source; they are usually repeats but may differ in a detail not shown here. Identical values can stand only once.

System: NCI-H510 multicellular tumor spheroid growth, % test/control
Assay: Anticancer human tumor NCI-H510 cell line growth inhibition [Asc];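 further: spheroids exposed to agents for 7 days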;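 on viability, T/C: 100% = DMSO vehicle control wells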
Conditions: for viability, T/C: stronger effect = lower value; active means viability on the fitted dose curve at most 10% of control; inactive means the rest
Protocol: Multicellular complex tumor spheroid response to apoptosis pathway targeting inhibitors Alrizomadlin, Pelcitoclax, and Dasminapant in combination with a variety of drugs and investigational agents in selected tumor cell lines
The MDM2 inhibitor alrizomadlin, the Bcl-2/Bcl-xL inhibitor pelcitoclax, and the IAPs inhibitor dasminapant were evaluated both individually and in combination with standard of care and investigational anticancer small molecules within a complex spheroid model of solid tumors. . Complex spheroids include a stromal component modeled by human endothelial cells (HUVEC) and fibroblasts modeled by human mesenchymal stem cells (MSCs). The concentration ranges selected for each drug and investigational agent were based upon clinically achievable concentrations if the clinical Cmax of the agent was known.
Compounds. The drugs and investigational agents: alrizomadlin (APG-115; NSC831270), pelcitoclax (APG-1252; NSC835773), dasminapant (APG-1387;NSC834197), TAK-243 (NSC785004), copanlisib (NSC809693), olaparib (NSC753686), talazoparib (NSC767125), cobimetinib (NSC 768068), eltanexor (KPT-8602, NSC 794443), abemaciclib (NSC 768073), sotorasib (NSC818433), adagrasib (NSC 831453), MRTX-1133 (NSC 836407), Iadademestat (ORY1001, NSC 806812), and RMC-4630 (NSC839698), were obtained from the NCI Developmental Therapeutics Program Chemical Repository. The FDA-approved anticancer drug set is available from the Developmental Therapeutics Program at https://dtp.cancer.gov/organization/dscb/obtaining/available plates.htm. […] The stock solutions were prepared in dimethyl sulfoxide (DMSO, Sigma-Aldrich, St. Louis, MO, cat. D2650) at 800-fold the tested concentration and stored at -70 degrees C prior to their use. All drugs and investigational agents were tested over a range starting from a high concentration at or near the clinical Cmax and decreasing in half-log increments. If the clinical Cmax for an agent had not been determined, the highest concentration tested was 10 microM.
The patient-derived cancer (PDC) cell lines include five colon adenocarcinomas: 186277-243-T-J2-PDC, 616215-338-R-J1-PDC, 439559-082-T-J2-PDC, 463943-066-T-J2-PDC, and 519858-162-T-J1-PDC; three pancreatic carcinomas: 323965-272-R-J2-PDC, 521955-158-R6-J3-PDC, and 521955-158-R2-J5-PDC; two uterine sarcomas: 327498-152-R-J2-PDC and 993429-296-R-J1-PDC; two rhabdomyosarcomas: 755483-174-R-J1-PDC and 772245-204-R-J1-PDC; two soft tissue sarcomas: 126254-015-R-J1-PDC and 494315-158-R-J1-PDC; two malignant fibrous histiocytomas: 317291-083-R-J1-PDC and 596521-263-R-J1-PDC; two breast carcinomas: 171881-019-R-J1-PDC and 885512-296-R-J2-PDC; and one ovarian carcinoma: 6556581-035-R-J-PDC were obtained from the NCI PDMR, (https://pdmr.cancer.gov). The established cell lines HSSY-2 synovial sarcoma (RRID:CVCL 8719), SYO-1 synovial sarcoma (RRID:CVCL_7146), MPNST malignant peripheral neural sheath tumor were obtained from the Sloan Kettering Institute. The following established cell lines were purchased from the American Type Culture Collection (ATCC, Manassas, VA), Sor the received from the NCI repository:, PANC-1 pancreatic carcinoma (CRL-1469, RRID:CVCL_0480), OVCAR-5 ovarian carcinoma (RRID:CVCL_1628), OVCAR-8 ovarian carcinoma (RRID:CVCL_1629), , MCF-7 breast carcinoma (CRL-12584, RRID:CVCL_0031), MDA-MB-231 breast carcinoma (CRL-12532, RRID:CVCL_0062), NCI-H1876 small cell lung carcinoma (CRL-5902, RRID:CVCL_1503), NCI-H510A small cell lung carcinoma (HTB-184, RRID:CVCL_1565), NCI-H1417 (CRL-5869, RRID:CVCL_1469), and NCI-H196 small cell lung carcinoma (CRL-5823, RRID:CVCL_1509). Dr. Peter Houghton (Greehey Children's Cancer Research Institute, University of Texas Health Science Center, San Antonio, TX) provided Rh-18 rhabdomyosarcoma (RRID:CVCL_1659). Pooled donor human umbilical vein endothelial cells (HUVEC, Lonza, cat. CC-2519) and human mesenchymal stem cells (hMSC, Lonza, cat. PT-2501) were purchased from Lonza (Walkersville, MD).
Cell Culture. […]

[1] = curve of first compound, second compound 0.03 µM
[2] = curve of first compound, second compound 0.0949 µM
[3] = curve of first compound, second compound 0.3 µM
[4] = curve of first compound, second compound 0.949 µM
[5] = curve of first compound, second compound 3 µM

CNC(C)C(=O)NC1CN(S(=O)(=O)c2cccc(S(=O)(=O)N3CCC4CCC(C(=O)NC(c5ccccc5)c5ccccc5)N4C(=O)C(NC(=O)C(C)NC)C3)c2)CCC2CCC(C(=O)NC(c3ccccc3)c3ccccc3)N2C1=O (centres undefined) + CCN1C(C(=O)NC23CCC(C(=O)O)(CC2)CC3)C(c2cccc(Cl)c2F)C2(C(=O)Nc3cc(Cl)ccc32)C12CCCCC2
< 6.00: pIC50 [1] | pIC50 [2] | pIC50 [3] | pIC50 [4] | pIC50 [5]
inactive: viability, T/C (second compound 0.03 µM, first compound 0.00316 µM) 96.8% | viability, T/C (second compound 0.03 µM, first compound 0.01 µM) 81.6% | viability, T/C (second compound 0.03 µM, first compound 0.0316 µM) 96.8% | viability, T/C (second compound 0.03 µM, first compound 0.1 µM) 101% | viability, T/C (second compound 0.03 µM, first compound 0.316 µM) 95.6% | viability, T/C (second compound 0.03 µM, first compound 1 µM) 97.8% | viability, T/C (second compound 0.0949 µM, first compound 0.00316 µM) 98.5% | viability, T/C (second compound 0.0949 µM, first compound 0.01 µM) 104% | viability, T/C (second compound 0.0949 µM, first compound 0.0316 µM) 87.8% | viability, T/C (second compound 0.0949 µM, first compound 0.1 µM) 77.2% | viability, T/C (second compound 0.0949 µM, first compound 0.316 µM) 105% | viability, T/C (second compound 0.0949 µM, first compound 1 µM) 83.5% | viability, T/C (second compound 0.3 µM, first compound 0.00316 µM) 81.6% | viability, T/C (second compound 0.3 µM, first compound 0.01 µM) 106% | viability, T/C (second compound 0.3 µM, first compound 0.0316 µM) 106% | viability, T/C (second compound 0.3 µM, first compound 0.1 µM) 93.4% | viability, T/C (second compound 0.3 µM, first compound 0.316 µM) 89.8% | viability, T/C (second compound 0.3 µM, first compound 1 µM) 83.7% | viability, T/C (second compound 0.949 µM, first compound 0.00316 µM) 110% | viability, T/C (second compound 0.949 µM, first compound 0.01 µM) 99.8% | viability, T/C (second compound 0.949 µM, first compound 0.0316 µM) 118% | viability, T/C (second compound 0.949 µM, first compound 0.1 µM) 96.6% | viability, T/C (second compound 0.949 µM, first compound 0.316 µM) 102% | viability, T/C (second compound 0.949 µM, first compound 1 µM) 81.7% | viability, T/C (second compound 3 µM, first compound 0.00316 µM) 86.5% | viability, T/C (second compound 3 µM, first compound 0.01 µM) 92% | viability, T/C (second compound 3 µM, first compound 0.0316 µM) 117% | viability, T/C (second compound 3 µM, first compound 0.1 µM) 84.1% | viability, T/C (second compound 3 µM, first compound 0.316 µM) 87.3% | viability, T/C (second compound 3 µM, first compound 1 µM) 110%

NC(=O)C(=Cn1cnc(-c2cc(C(F)(F)F)cc(C(F)(F)F)c2)n1)c1cncnc1 + CCN1C(C(=O)NC23CCC(C(=O)O)(CC2)CC3)C(c2cccc(Cl)c2F)C2(C(=O)Nc3cc(Cl)ccc32)C12CCCCC2
6.74: pIC50 [2] | pIC50 [4]
6.78: pIC50 [1]
7.27: pIC50 [5]
6.86: pIC50 [3]
inactive: viability, T/C (second compound 0.03 µM, first compound 0.000949 µM) 113% | viability, T/C (second compound 0.03 µM, first compound 0.003 µM) 89.3% | viability, T/C (second compound 0.03 µM, first compound 0.00949 µM) 84.8% | viability, T/C (second compound 0.03 µM, first compound 0.03 µM) 106% | viability, T/C (second compound 0.03 µM, first compound 0.0949 µM) 56.9% | viability, T/C (second compound 0.03 µM, first compound 0.3 µM) 42.4% | viability, T/C (second compound 0.0949 µM, first compound 0.000949 µM) 88.4% | viability, T/C (second compound 0.0949 µM, first compound 0.003 µM) 121% | viability, T/C (second compound 0.0949 µM, first compound 0.00949 µM) 89.2% | viability, T/C (second compound 0.0949 µM, first compound 0.03 µM) 95.1% | viability, T/C (second compound 0.0949 µM, first compound 0.0949 µM) 65% | viability, T/C (second compound 0.0949 µM, first compound 0.3 µM) 38.6% | viability, T/C (second compound 0.3 µM, first compound 0.000949 µM) 80.7% | viability, T/C (second compound 0.3 µM, first compound 0.003 µM) 94.9% | viability, T/C (second compound 0.3 µM, first compound 0.00949 µM) 93.9% | viability, T/C (second compound 0.3 µM, first compound 0.03 µM) 87.3% | viability, T/C (second compound 0.3 µM, first compound 0.0949 µM) 58.4% | viability, T/C (second compound 0.3 µM, first compound 0.3 µM) 32.4% | viability, T/C (second compound 0.949 µM, first compound 0.000949 µM) 106% | viability, T/C (second compound 0.949 µM, first compound 0.003 µM) 87.1% | viability, T/C (second compound 0.949 µM, first compound 0.00949 µM) 99.3% | viability, T/C (second compound 0.949 µM, first compound 0.03 µM) 79.9% | viability, T/C (second compound 0.949 µM, first compound 0.0949 µM) 93.5% | viability, T/C (second compound 0.949 µM, first compound 0.3 µM) 15.3% | viability, T/C (second compound 3 µM, first compound 0.000949 µM) 90.1% | viability, T/C (second compound 3 µM, first compound 0.003 µM) 106% | viability, T/C (second compound 3 µM, first compound 0.00949 µM) 108% | viability, T/C (second compound 3 µM, first compound 0.03 µM) 84% | viability, T/C (second compound 3 µM, first compound 0.0949 µM) 18.3% | viability, T/C (second compound 3 µM, first compound 0.3 µM) 14.9%

Cc1nc(N2CCC3(CC2)COC(C)C3N)c(CO)nc1Sc1ccnc(N)c1Cl (centres undefined)
inactive: viability, T/C (compound 0.00949 µM) 103% and 93.2% and 86.2% | viability, T/C (compound 0.03 µM) 101% and 121% and 91% | viability, T/C (compound 0.0949 µM) 103% and 109% and 98.7% | viability, T/C (compound 0.3 µM) 99% and 118% and 99.2% | viability, T/C (compound 0.949 µM) 96.9% and 107% and 96.8% | viability, T/C (compound 3 µM) 100% and 106% and 80.6%
< 5.52: pIC50 (curve of compound)

CCN1CCN(Cc2ccc(Nc3ncc(F)c(-c4cc(F)c5nc(C)n(C(C)C)c5c4)n3)nc2)CC1
inactive: viability, T/C (compound 0.00316 µM) 99.7% and 83.9% and 97.2% | viability, T/C (compound 0.01 µM) 95.4% and 91.7% and 83.9% | viability, T/C (compound 0.0316 µM) 104% and 102% and 97.5% | viability, T/C (compound 0.1 µM) 93.1% and 78.6% and 112% | viability, T/C (compound 0.316 µM) 99.7% and 82.1% and 106% | viability, T/C (compound 1 µM) 76.2% and 98% and 106%
< 6.00: pIC50 (curve of compound)
